Starred links: 1 amine or outer side, 2 acyl side, 3 side chain; linkers in the order of their positions; H or OH if unused. Positions of bridges follow the written chain, without caps; N, C: chain ends. Non-standard residues stand in square brackets, D forms with d. Residues, ends and D or L forms follow the SMILES beside them. *: point of attachment. Propanoyl(3-(4-HOOCCH2-Ph)) = O=C(O)Cc1ccc(CCC(=O)*)cc1; X4 = O=C([C@@H](Cc1ccc(Cc2nn[nH]n2)cc1)N[*:1])[*:2]; X5 = CCOC(=O)Cc1ccc(C[C@H](N[*:1])C(=O)[*:2])cc1; X8 = O=C(C(Cc1ccc(Cc2nn[nH]n2)cc1)N[*:1])[*:2]; X9 = O=C(C(Cc1ccc(-c2nnn[nH]2)cc1)N[*:1])[*:2]; X1 = O=C(O)Cc1ccc(CC(N[*:1])C(=O)[*:2])cc1; NMeF = CN[C@@H](Cc1ccccc1)C(=O)O; Nle = CCCC[C@H](N)C(=O)O
What was measured:
[1] = system: Male Sprague-Dawley (CD) rats; experiment: Two-Meal Feeding Assay; assay type: in vivo; settings: rat
Experimental: Male Sprague-Dawley (CD) rats weighing 180-200 grams (Charres River Breeding Laboratories) were acclimated to a 12 h light/dark cycle (6 a.m. to 6 p.m.) in a room kept at 22° C. They were subsequently fasted for two days, weighed, placed in individual cages, and a four-day period of meal training was begun. During this time the rats were given ground laboratory chow (Purina Lab Chow) in jars for one hour from 9:00 a.m. until 10:00 a.m., the jars were removed from 10:00 a.m. to 12:00 p.m., and placed back in the cages from 12:00 until 1:00 p.m. Under this `1-2-1` meal feeding regime, most rats learn to eat approximately as much per day during the two hours they have access to food as rats which have food ad libitum over the entire 24-hour day. On the fourth day, the rats were weighed again, and any which lost more than five grams body weight were excluded from the test. The animals were then distributed into experimental (n=5 to 6) and control groups (n=6-12), but not matched for body weight.
Peptides of the invention were suspended either in saline, if soluble, or in 0.5% DMSO/saline, if insoluble, at concentrations of 0 to 320 μg/mL/kg body weight and were administered intraperitoneally 15 min before the first meal on day 5 of meal feeding. The rats were then given their meals as they had been during the previous four days, and the food cups were weighed both before and after each meal to determine food consumption. Food intake was expressed as a mean and standard error of the mean in percent of control values for the various groups. The treated groups were compared to the control groups by t-test analysis.

[2] = target: T1, Bovine Striatum (3H-CCK-8-(SO3 H) receptor binding) (Bos taurus, UniProt P79266); experiment: In vitro receptor binding assay, 3H-CCK-8-(SO3H), bovine striatum homogenate; settings: 3H-CCK-8-(SO3H) 0.15 nM, 30 min at 25° C., bovine striatum homogenate; read-out: Bovine Striatum IC50 (concentration to inhibit 50% of specific 3H-CCK-8-(SO3H) binding)
T1 construct: tissue homogenate (striatum approximately 0.26 mg protein in 2 mL final volume); from tissue; host or cells: bovine striatum membrane homogenate
T1 sequence (P79266 1-454): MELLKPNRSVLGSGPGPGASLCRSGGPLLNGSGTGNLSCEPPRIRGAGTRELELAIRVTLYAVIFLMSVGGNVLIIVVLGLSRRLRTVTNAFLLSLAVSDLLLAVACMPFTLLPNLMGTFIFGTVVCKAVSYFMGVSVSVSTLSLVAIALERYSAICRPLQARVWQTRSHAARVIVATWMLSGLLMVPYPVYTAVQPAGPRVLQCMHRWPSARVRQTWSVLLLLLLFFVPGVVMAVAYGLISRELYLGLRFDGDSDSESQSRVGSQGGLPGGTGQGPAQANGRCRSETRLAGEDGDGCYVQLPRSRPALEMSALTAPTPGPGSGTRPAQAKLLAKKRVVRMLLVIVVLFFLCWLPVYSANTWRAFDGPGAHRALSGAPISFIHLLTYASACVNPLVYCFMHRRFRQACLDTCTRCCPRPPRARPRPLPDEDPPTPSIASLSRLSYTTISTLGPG
Experimental: (§1) Frozen bovine striatum (approx. 5 g) or fresh rat pancreas (approx. 5 g) cleaned of fat and extraneous tissue were homogenized in HEPES buffer #1 (10 mM HEPES+130 mM NaCl+5 mM MgCl2, pH 7.4) using 35 parts buffer per 1 part tissue on a wet weight/volume basis (approx. 175 mL). The tissue was homogenized 2×for approx. 15 sec. at 0° C. using a Polytron homogenizer at a setting of 6. The tissue was isolated by centrifugation at 48,000× g for 10 min at 0° C. The resulting tissue pellet was resuspended in HEPES buffer #2 (10 mM HEPES+130 mM NaCl+5 mM MgCl2 +1 mg/L phenylmethanasulfonyl fluoride (PMSF)+200 mg/L Bacitracin): 1 part striatal tissue (original wet weight) per 80 parts buffer and 1 part pancreas tissue (original wet weight) per 500 to 1000 parts buffer.
(§2) Incubation was initiated by combining various concentrations of native CCK-8 or peptides of the invention with ^3 H-CCK-8-(SO3 H) (final conc.=0.15 nM) and tissue homogenate (striatum approximately 0.26 mg protein in 2 mL final volume; pancreas approximately 0.100 mg protein in 1 mL final volume). Samples were incubated for 30 min at 25° C. and the incubation terminated by pouring the mixture onto a pre-wetted Whatman GF/B filter on a Sandbeck Vacuum Filtration Manifold. The incubation tubes were washed with 2×3 mL of ice-cold HEPES Buffer #2 and the wash filtered through the GF/B filter. The filter was air dried for 10 min and then placed in a scintillation vial with 12 mL of DuPont/NEN Aquasol scintillation cocktail. The vials were shaken overnight and then counted using a liquid scintillation spectrometer. Non-specific binding was determined in the presence of 1 micromolar native CCK-8 and subtracted from all samples to determine specific binding. The concentration of peptide necessary to inhibit 50% of total specific H-CCK-8-(SO3 H) binding (IC50 value) was determined by log-probit analysis.

[3] = target: T2, rat pancreas (3H-CCK-8-(SO3 H) receptor binding) (Rattus norvegicus, UniProt P30551); experiment: In vitro receptor binding assay, 3H-CCK-8-(SO3H), rat pancreas homogenate; settings: 3H-CCK-8-(SO3H) 0.15 nM, 30 min at 25° C., rat pancreas homogenate; read-out: Rate Pancreas IC50 (concentration to inhibit 50% of specific 3H-CCK-8-(SO3H) binding)
T2 construct: pancreas approximately 0.100 mg protein in 1 mL final volume; from tissue; host or cells: rat pancreas membrane homogenate
T2 sequence (P30551 1-444): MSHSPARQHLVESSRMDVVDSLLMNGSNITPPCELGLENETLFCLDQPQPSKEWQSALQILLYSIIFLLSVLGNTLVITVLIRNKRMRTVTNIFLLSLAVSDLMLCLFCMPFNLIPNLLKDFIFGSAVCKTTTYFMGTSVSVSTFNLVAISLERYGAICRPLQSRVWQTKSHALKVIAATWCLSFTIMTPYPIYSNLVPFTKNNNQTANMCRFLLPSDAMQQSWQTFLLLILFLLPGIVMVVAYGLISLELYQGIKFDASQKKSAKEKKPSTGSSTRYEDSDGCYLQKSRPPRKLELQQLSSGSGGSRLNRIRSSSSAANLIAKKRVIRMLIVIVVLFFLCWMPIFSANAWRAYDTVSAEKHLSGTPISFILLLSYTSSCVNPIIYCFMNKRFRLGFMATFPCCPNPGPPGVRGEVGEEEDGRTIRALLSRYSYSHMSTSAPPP
Experimental: as §1, §2

[4] = dose 10 Microgram/kg intraperitoneally 15 min before first meal
[5] = dose 32 Microgram/kg intraperitoneally 15 min before first meal
[6] = dose 100 Microgram/kg intraperitoneally 15 min before first meal
[7] = dose 320 Microgram/kg intraperitoneally 15 min before first meal

| IC50 [2] | IC50 [3] | Structure (SMILES) | further results |
| --- | --- | --- | --- |
| – | – | CCCC[C@H](NC(=O)[C@H](Cc1c[nH]c2ccccc12)NC(=O)CNC(=O)[C@H](CCCC)NC(=O)[C@@H](Cc1ccc(Cc2nn[nH]n2)cc1)NC(C)=O)C(=O)N[C@@H](CC(=O)O)C(=O)N(C)[C@@H](Cc1ccccc1)C(N)=O [Example 64, Ac-(D)-Phe(4-CH2 -tetrazole)-Nle-Gly-Trp-Nle-Asp-N-methyl-Phe-NH2] (Ac-[X4][Nle]GW[Nle]D[NMeF]-NH2) | Food Intake 1st Meal [1, 4]: 112 ± 10 % of Control; Food Intake 2nd Meal [1, 4]: 102 ± 9 % of Control; Food Intake 1st Meal [1, 5]: 79 ± 5 % of Control; Food Intake 2nd Meal [1, 5]: 148 ± 12 % of Control; Food Intake 1st Meal [1, 6]: 56 % of Control; Food Intake 2nd Meal [1, 6]: 173 ± 5 % of Control; Food Intake 1st Meal [1, 7]: 21 ± 6 % of Control; Food Intake 2nd Meal [1, 7]: 207 % of Control |
| 580 nM | 1100 nM | CSCC[C@@H]1NC(=O)[C@H](Cc2c[nH]c3ccccc23)NC(=O)CNC(=O)[C@@H](NC(=O)C(Cc2ccc(-c3nnn[nH]3)cc2)NC(C)=O)CCCCNC(=O)C[C@@H](C(=O)N(C)[C@@H](Cc2ccccc2)C(N)=O)NC1=O (some centres unmarked) [Example 57] (Ac-[X9]KGWMD[NMeF]-NH2; lactam 2-6) | Food Intake 1st Meal [1, 5]: 75 ± 6 % of Control; Food Intake 2nd Meal [1, 5]: 160 ± 14 % of Control; Food Intake 1st Meal [1, 7]: 36 ± 3 % of Control; Food Intake 2nd Meal [1, 7]: 148 ± 6 % of Control |
| 10000 nM | 3600 nM | CCOC(=O)Cc1ccc(C[C@H](NC(C)=O)C(=O)N[C@@H](CCSC)C(=O)NCC(=O)N[C@@H](Cc2c[nH]c3ccccc23)C(=O)N[C@@H](CCSC)C(=O)N[C@@H](CC(=O)OCC)C(=O)N[C@@H](Cc2ccccc2)C(N)=O)cc1 [Example 50, Ac-Phe(4-CH2 COOC2 H5)-Met-Gly-Trp-Met-Asp-(COOC2 H5)-Phe-NH2] (Ac-[X5]MGWMD(OEt)F-NH2) | – |
| 3.2 nM | 1.8 nM | CSCC[C@H](NC(=O)CCc1ccc(CC(=O)O)cc1)C(=O)NCC(=O)N[C@@H](Cc1c[nH]c2ccccc12)C(=O)N[C@@H](CCSC)C(=O)N[C@@H](CC(=O)O)C(=O)N(C)[C@@H](Cc1ccccc1)C(N)=O [Example 69, Desamino-Phe(4-CH2 -COOH)-Met-Gly-Trp-Met-Asp-N-methyl-Phe-NH2] ({Propanoyl(3-(4-HOOCCH2-Ph))}-MGWMD[NMeF]-NH2) | – |
| 1400 nM | 1800 nM | CCCC[C@H](NC(=O)CCc1ccc(CC(=O)O)cc1)C(=O)N[C@H](C)C(=O)N[C@@H](Cc1c[nH]c2ccccc12)C(=O)N[C@@H](CCCC)C(=O)N[C@@H](CC(=O)O)C(=O)N(C)[C@@H](Cc1ccccc1)C(N)=O [Example 71, Desamino-Phe(4-CH2 COOH)-Nle-(D)Ala-Trp-Nle- Asp-N-methyl-Phe-NH2] ({Propanoyl(3-(4-HOOCCH2-Ph))}-[Nle][dA]W[Nle]D[NMeF]-NH2) | – |
| 1 to 3.2 nM | 1 to 4.6 nM | CSCC[C@H](NC(=O)[C@H](Cc1ccc(OS(=O)(=O)O)cc1)NC(=O)[C@@H](N)CC(=O)O)C(=O)NCC(=O)N[C@@H](Cc1c[nH]c2ccccc12)C(=O)N[C@@H](CCSC)C(=O)N[C@@H](CC(=O)O)C(=O)N[C@@H](Cc1ccccc1)C(N)=O [CCK-8, AspTyr(SO3 H)MetGlyTrpMetAspPheNH2, reference compound] | – |
| 47 nM | 3.6 nM | CSCC[C@H](NC(=O)C(Cc1ccc(CC(=O)O)cc1)NC(C)=O)C(=O)NCC(=O)N[C@@H](Cc1c[nH]c2ccccc12)C(=O)N[C@@H](CCSC)C(=O)N[C@@H](CC(=O)O)C(=O)N[C@@H](Cc1ccccc1)C(N)=O (stereo partly drawn) [Example 46, Ac-(D,L)Phe(4-CH2 COOH)-Met-Gly-Trp-Met-Asp-Phe-NH2] (Ac-[X1]MGWMDF-NH2) | – |
| 260 nM | 640 nM | CCCC[C@H](NC(=O)C(Cc1ccc(Cc2nn[nH]n2)cc1)NC(C)=O)C(=O)NCC(=O)N[C@@H](Cc1c[nH]c2ccccc12)C(=O)N[C@@H](CCCC)C(=O)N[C@@H](CC(=O)O)C(=O)N(C)[C@@H](Cc1ccccc1)C(N)=O (stereo partly drawn) [Example 63, Ac-(D,L)Phe(4-CH2 -tetrazole)-Nle-Gly-Trp-Nle-Asp-N-methyl-Phe-NH2] (Ac-[X8][Nle]GW[Nle]D[NMeF]-NH2) | – |

Reference: patent US5508437A, “Analogs of tyrosine sulfate or tyrosine phosphate containing peptides” (Hoffmann-La Roche Inc., priority 1993, dated 1996)
